The values below are quoted from earlier work in patent US8062870B2, “Enantiomerically resolving acyloxyalkyl thiocarbonates used in synthesizing acyloxyalkyl carbamate prodrugs” (XenoPort, Inc., priority 2008, dated 2011).

The conditions of this data set: dosed either orally or directly into the colon of a mammal.

Regarding `CC(C)C[C@H](CNC(=O)OC(OC(=O)C(C)C)C(C)C)CC(=O)O` (some centres unmarked), the bioavailability as pregabalin entry is on record as “high bioavailability”.
As for `CC(C)C[C@H](CNC(=O)OC(C)OC(=O)c1ccccc1)CC(=O)O` (some centres unmarked), the bioavailability as pregabalin result is recorded as “high bioavailability”.
